Target: T1, human IL-17AA (Homo sapiens, UniProt Q16552)
T1 construct: host or cells: HEK (human embryonic kidney) cells
T1 sequence (Q16552 24-155): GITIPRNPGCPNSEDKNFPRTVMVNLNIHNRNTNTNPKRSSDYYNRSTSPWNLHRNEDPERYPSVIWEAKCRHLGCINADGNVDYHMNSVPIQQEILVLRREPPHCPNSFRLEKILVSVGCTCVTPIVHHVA
Experiment: IL-8 release assay in human epithelial keratinocytes adult (HEKa)
Format: cell-based
Conditions: HEKa cells, 3 ng/mL HEK-human IL-17AA + 10 ng/mL human TNFalpha; read-out: Rel EC50 IL-8 release assay
Description: Example 138: IL-8 Release Assay in Human Epithelial Keratinocytes Adult (HEKa)
Keratinocytes were seeded at 3500 cells/well in 384-well ViewPlates (Perkin Elmer) in Epilife medium (Thermo Fisher) containing human keratinocyte growth supplement (HKGS) without hydrocortisone and incubated in a humid incubator at 37° C. 5% CO2, overnight. The following day growth medium was removed and 25 μl fresh Epilife medium added. 75 nL test compound in 100% DMSO was added into each well reserved for test compounds, by the use of acoustic pipetting. The remaining wells received an equal volume of DMSO only, as vehicle control, or terfenadine in DMSO, as a positive control for any cytotoxic compounds. Subsequently, another 25 μL Epilife medium was added to each well. Finally, wells containing test compounds and wells prepared to yield maximum stimulation received […] of 9 ng/mL recombinant, human embryonic kidney cell (HEK)-derived human IL-17AA+30 ng/mL human TNF-alpha, in Epilife medium. Wells prepared to define 100% inhibition of IL-17 effects received 25 μL of 30 ng/mL human TNF-alpha alone, in Epilife medium. Final concentrations were 3 ng/mL HEK-human IL-17AA+10 ng/mL human TNFalpha (maximum stimulation) and 10 ng/mL human TNFalpha alone (100% inhibition, Emax), respectively. Cells were incubated for 68-72 hours in the incubator. IL-8 released from the cells was measured by the use of a commercial homogenous time-resolved fluorescence (HTRF) assay (CisBio). 2 μL cell culture supernatant was transferred to a 384-well Proxiplate. 5 μL HTRF reagent was added and the plates incubated sealed in the dark for 3-22 hours at room temperature. Time-resolved fluorescence was read at 665 vs 620 nm, with excitation at 320 nm, and IL-8 levels calculated as percent of controls. Reduction of the amount of secreted IL-8 indicates decreased IL-17 signaling. Concentration response curves were fitted by the use of a four-parameter logistic equation. Relative IC50 and Emax were reported from curves showing acceptable fit (r^2>0.9). Cytotoxicity was measured in the cell-containing Viewplates following addition of 7 μL PrestoBlue (Thermo Fisher) and incubation for 2.5-3 hours at room temperature, by measuring fluorescence at 615 nm (excitation at 535 nm). Fluorescence was directly proportional to the amount of metabolic activity. Reduction of fluorescence signal indicated cytotoxicity.
Compounds of the present invention were tested in the IL-8 release assay in human epithelial keratinocytes.
Compounds having a Relative EC50 of X; wherein X<100 nM; are indicated with *
Compounds having a Relative EC50 of X; wherein 100 nM<X<1000 nM; are indicated with **
Compounds having a Relative EC50 of X; wherein 1000 nM<X; are indicated with ***

EC50 [nM] | SMILES
> 1000 | Cc1n[nH]c(C)c1-c1ccc(NC(=O)C(NC(=O)c2ccnn2[C@@H](C)CO)C2CCCCCCC2)cc1 (single isomer, unassigned) [Example 150]
< 100 | Cc1n[nH]c(C)c1-c1ccc(NC(=O)C(NC(=O)c2ccnn2[C@@H](C)CO)C2CCCCCCC2)cc1 (single isomer, unassigned) [Example 151]
< 100 | Cc1n[nH]c(C)c1-c1ccc(NC(=O)C(NC(=O)c2ccnn2C(C)C)C2CCCCCCC2)cc1 (single isomer, unassigned) [Example 152, N-[1-cyclooctyl-2-[4-(3,5-dimethyl-1H-pyrazol-4-yl)anilino]-2-oxo-ethyl]-2-(1-methylethyl)pyrazole-3-carboxamide]
100 to 1000 | Cc1n[nH]c(C)c1-c1ccc(NC(=O)C(NC(=O)c2ccnn2C(C)C)C2CCCCCCC2)cc1 (single isomer, unassigned) [Example 153, N-[1-cyclooctyl-2-[4-(3,5-dimethyl-1H-pyrazol-4-yl)anilino]-2-oxo-ethyl]-2-(1-methylethyl)pyrazole-3-carboxamide]
100 to 1000 | CCn1nccc1C(=O)NC(C(=O)Nc1ccc(-c2c(C)n[nH]c2C)cc1)C1CCCCCCC1 (single isomer, unassigned) [Example 154, N-[1-cyclooctyl-2-[4-(3,5-dimethyl-1H-pyrazol-4-yl)anilino]-2-oxo-ethyl]-2-ethyl-pyrazole-3-carboxamide]
< 100 | CCn1nccc1C(=O)NC(C(=O)Nc1ccc(-c2c(C)n[nH]c2C)cc1)C1CCCCCCC1 (single isomer, unassigned) [Example 155, N-[1-cyclooctyl-2-[4-(3,5-dimethyl-1H-pyrazol-4-yl)anilino]-2-oxo-ethyl]-2-ethyl-pyrazole-3-carboxamide]
< 100 | Cc1n[nH]c(C)c1-c1ccc(NC(=O)C(NC(=O)c2ccnn2C)C2CCCCCCC2)cc1 (single isomer, unassigned) [Example 156, N-[1-cyclooctyl-2-[4-(3,5-dimethyl-1H-pyrazol-4-yl)anilino]-2-oxo-ethyl]-2-methyl-pyrazole-3-carboxamide]
> 1000 | Cc1n[nH]c(C)c1-c1ccc(NC(=O)C(NC(=O)c2ccnn2C)C2CCCCCCC2)cc1 (single isomer, unassigned) [Example 157, N-[1-cyclooctyl-2-[4-(3,5-dimethyl-1H-pyrazol-4-yl)anilino]-2-oxo-ethyl]-2-methyl-pyrazole-3-carboxamide]
100 to 1000 | Cc1n[nH]c(C)c1-c1ccc(NC(=O)[C@@H](NC(=O)c2ccnn2C)C(C)CC2CC2)cc1 (single isomer, unassigned) [Example 159]
100 to 1000 | Cc1n[nH]c(C)c1-c1ccc(NC(=O)[C@@H](NC(=O)c2ccnn2C)C(C)CC2CC2)cc1 (single isomer, unassigned) [Example 160]
100 to 1000 | Cc1n[nH]c(C)c1-c1ccc(NC(=O)[C@@H](NC(=O)c2ccnn2[C@H](C)CO)C(C)C2CCC2)cc1 (single isomer, unassigned) [Example 164]
100 to 1000 | Cc1n[nH]c(C)c1-c1ccc(NC(=O)[C@@H](NC(=O)c2ccnn2[C@H](C)CO)C(C)C2CCC2)cc1 (single isomer, unassigned) [Example 165]
< 100 | Cc1n[nH]c(C)c1-c1ccc(NC(=O)[C@@H](NC(=O)c2ccnn2[C@@H](C)CO)C(C)C2CCC2)cc1 (single isomer, unassigned) [Example 173]
100 to 1000 | Cc1n[nH]c(C)c1-c1ccc(NC(=O)[C@@H](NC(=O)c2ccnn2[C@@H](C)CO)C(C)C2CCC2)cc1 (single isomer, unassigned) [Example 174]
100 to 1000 | Cc1n[nH]c(C)c1-c1ccc(NC(=O)[C@@H](NC(=O)c2ccnn2C(C)CO)C(C)C(C)(C)C)cc1 (single isomer, unassigned) [Example 175]
100 to 1000 | Cc1n[nH]c(C)c1-c1ccc(NC(=O)[C@@H](NC(=O)c2ccnn2C(C)CO)C(C)C(C)(C)C)cc1 (single isomer, unassigned) [Example 176]
100 to 1000 | Cc1n[nH]c(C)c1-c1ccc(NC(=O)[C@@H](NC(=O)c2ccnn2C(C)CO)C(C)C(C)(C)C)cc1 (single isomer, unassigned) [Example 177]
< 100 | Cc1n[nH]c(C)c1-c1ccc(NC(=O)[C@@H](NC(=O)c2ccnn2C(C)CO)C(C)C(C)(C)C)cc1 (single isomer, unassigned) [Example 178]
< 100 | Cc1n[nH]c(C)c1-c1ccc(NC(=O)[C@@H](NC(=O)c2ccnn2C(C)CO)C2C3CC4CC(C3)CC2C4)cc1 (single isomer, unassigned) [Example 187]

EC50 [nM] | SMILES
< 100 | Cc1n[nH]c(C)c1-c1ccc(NC(=O)[C@@H](NC(=O)c2ccnn2C(C)CO)C2C3CC4CC(C3)CC2C4)cc1 (single isomer, unassigned) [Example 188]
< 100 | Cc1n[nH]c(C)c1-c1ccc(NC(=O)[C@@H](NC(=O)c2ccnn2C(C)C)C(C)C2CCC2)cc1 (single isomer, unassigned) [Example 190]
100 to 1000 | Cc1n[nH]c(C)c1-c1ccc(NC(=O)[C@@H](NC(=O)c2ccnn2C(C)C)C(C)C2CCC2)cc1 (single isomer, unassigned) [Example 191]
< 100 | CCn1nccc1C(=O)N[C@H](C(=O)Nc1ccc(-c2c(C)n[nH]c2C)cc1)C(C)C1CCC1 (single isomer, unassigned) [Example 192]
100 to 1000 | CCn1nccc1C(=O)N[C@H](C(=O)Nc1ccc(-c2c(C)n[nH]c2C)cc1)C(C)C1CCC1 (single isomer, unassigned) [Example 193]
< 100 | Cc1n[nH]c(C)c1-c1ccc(NC(=O)[C@@H](NC(=O)c2ccnn2C)C(C)C2CCC2)cc1 (single isomer, unassigned) [Example 194]
100 to 1000 | Cc1n[nH]c(C)c1-c1ccc(NC(=O)[C@@H](NC(=O)c2ccnn2C)C(C)C2CCC2)cc1 (single isomer, unassigned) [Example 195]
< 100 | Cc1n[nH]c(C)c1-c1ccc(NC(=O)[C@@H](NC(=O)c2ccnn2C(C)CO)[C@H]2CC[C@H](C)CC2)cc1 (single isomer, unassigned) [Example 204]
< 100 | Cc1n[nH]c(C)c1-c1ccc(NC(=O)[C@@H](NC(=O)c2ccnn2C(C)CO)[C@H]2CC[C@H](C)CC2)cc1 (single isomer, unassigned) [Example 205]
< 100 | Cc1n[nH]c(C)c1-c1ccc(NC(=O)[C@@H](NC(=O)c2ccnn2C(C)CO)[C@@H]2CC(C)(C)CCC2(F)F)cc1 (single isomer, unassigned) [Example 210]
< 100 | Cc1n[nH]c(C)c1-c1ccc(NC(=O)[C@@H](NC(=O)c2ccnn2C(C)CO)[C@@H]2CC(C)(C)CCC2(F)F)cc1 (single isomer, unassigned) [Example 211]
> 1000 | Cc1n[nH]c(C)c1-c1ccc(NC(=O)[C@@H](NC(=O)c2ccnn2C)C2CC23CCC3)cc1 (single isomer, unassigned) [Example 223]
> 1000 | Cc1n[nH]c(C)c1-c1ccc(NC(=O)[C@@H](NC(=O)c2ccnn2C)C2CC2(C)C)cc1 (single isomer, unassigned) [Example 224]
< 100 | Cc1n[nH]c(C)c1-c1ccc(NC(=O)[C@@H](NC(=O)c2ccnn2C(C)CCO)C(C2CC2)C2CC2)cc1 (single isomer, unassigned) [Example 225]
< 100 | Cc1n[nH]c(C)c1-c1ccc(NC(=O)[C@@H](NC(=O)c2ccnn2C(C)CCO)C(C2CC2)C2CC2)cc1 (single isomer, unassigned) [Example 226]
> 1000 | CCC(c1ccccc1)C(NC(=O)c1ccnn1C)C(=O)Nc1ccc(-c2c(C)n[nH]c2C)cc1 (single isomer, unassigned) [Example 227]
100 to 1000 | CCC(c1ccccc1)C(NC(=O)c1ccnn1C)C(=O)Nc1ccc(-c2c(C)n[nH]c2C)cc1 (single isomer, unassigned) [Example 228]
100 to 1000 | Cc1n[nH]c(C)c1-c1ccc(NC(=O)[C@@H](NC(=O)c2ccnn2C)C2CCC2(C)C)cc1 (single isomer, unassigned) [Example 232]
100 to 1000 | Cc1n[nH]c(C)c1-c1ccc(NC(=O)C(NC(=O)c2ccnn2C)[C@@H](C)c2ccccc2)cc1 (single isomer, unassigned) [Example 234]
